From patent US6015805A, “17β-nitro-11β-arylisteroids and their derivatives having agonist or antagonist hormonal properties” (Research Triangle Research North Carolina, priority 1999, dated 2000)

Legend:
[1] = target: T1, human progesterone hormone receptor (hPR) (Homo sapiens, UniProt P06401); assay: Receptor binding (human), inhibition of [^3 H]-R5020 binding; details: cytosol from human T-47D cells; 0.4 nM [^3 H]-R5020; 4 hours at 4° C.
T1 construct: The receptor was obtained in cytosol from human T-47D breast cells; endogenous in cells; host or cells: T-47D human breast cells (cytosol)
T1 sequence (P06401 1-933): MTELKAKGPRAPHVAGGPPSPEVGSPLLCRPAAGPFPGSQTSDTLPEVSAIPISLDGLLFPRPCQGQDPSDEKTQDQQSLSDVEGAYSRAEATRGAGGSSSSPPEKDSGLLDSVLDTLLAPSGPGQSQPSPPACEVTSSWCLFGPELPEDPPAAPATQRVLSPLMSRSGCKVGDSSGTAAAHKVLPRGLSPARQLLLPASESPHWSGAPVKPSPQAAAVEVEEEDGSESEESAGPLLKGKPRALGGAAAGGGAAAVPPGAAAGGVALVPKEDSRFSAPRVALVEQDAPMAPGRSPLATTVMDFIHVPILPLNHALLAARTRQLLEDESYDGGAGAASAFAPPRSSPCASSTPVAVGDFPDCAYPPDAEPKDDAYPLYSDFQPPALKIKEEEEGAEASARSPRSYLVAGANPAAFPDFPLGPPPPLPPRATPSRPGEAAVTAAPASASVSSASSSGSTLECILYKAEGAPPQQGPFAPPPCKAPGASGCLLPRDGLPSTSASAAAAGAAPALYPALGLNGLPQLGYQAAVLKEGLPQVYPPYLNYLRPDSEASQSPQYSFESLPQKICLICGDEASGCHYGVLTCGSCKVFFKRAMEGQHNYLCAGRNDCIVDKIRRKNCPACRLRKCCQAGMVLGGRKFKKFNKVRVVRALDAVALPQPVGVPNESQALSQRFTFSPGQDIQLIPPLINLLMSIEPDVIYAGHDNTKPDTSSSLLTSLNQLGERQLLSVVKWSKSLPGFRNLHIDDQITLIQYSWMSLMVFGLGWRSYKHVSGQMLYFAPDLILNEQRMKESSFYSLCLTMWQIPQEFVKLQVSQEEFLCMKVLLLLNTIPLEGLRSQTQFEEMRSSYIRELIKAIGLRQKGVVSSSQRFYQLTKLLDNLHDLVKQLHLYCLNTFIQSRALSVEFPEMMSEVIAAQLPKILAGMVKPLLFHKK
Method: The affinity of the compounds for hormone receptors for progestins and glucocorticoids from rabbits was determined by standard procedures similar to those that have been described in C. E. Cook, et al., Human Reproduction, Volume 9, supplement 1, pp. 32-39 (1994). However, the source of the glucocorticoid receptor was the thymus of the estrogen-primed immature female rabbit. The affinity of the compounds for the human progesterone hormone receptor was determined by standard procedures similar to those that have been described in Horwitz, et al., Cell, 28: 633-42 (1982) and Mockus, et al., Endocrinology, 110: 1564-71 (1982). The receptor was obtained in cytosol from human T-47D breast cells and [^3 H]-R5020 was used as the radioligand. T47D cells (1 billion/mL) were homogenized in TEDG buffer (10 mM Tris, 1.5 mM EDTA, 1 mM dithiothreitol, 1 mM sodium molybdate, and 10% glycerol) using a Dounce pestle A, and the homogenate was centrifuged at 34,000×g for 1 hour. The supernatant was stored at -80° C. An aliquot of receptor preparation was combined with test compound, 0.4 nM [^3 H]-R5020, and TEDG buffer to a final volume of 150 ,μL and incubated for 4 hours at 4° C. in microtiter plates. At the end of incubation 40 μL 40% polyethylene glycol and 15 μL 1% human gamma globulin was added to the incubate and the contents of each well were harvested onto double thick B filter mats (Wallac LKB) using a TomTec harvester. A film of Meltilux scintillant wax was applied to the dried filter mats and the mats were counted in a scintillation counter to determine inhibition of [^3 H]-R5020 binding. Data are expressed as lC50 values, i.e., the concentration of compound that inhibits radioligand binding by 50%.

rabbits [2] = assay: Anti-McGinty assay (antiprogestational activity, test compound plus progesterone); assay type: in vivo, rabbit; parameters: key to McPhail Index, Anti-McGinty Assay, Standard / McPhail Index, Anti-McGinty Assay (Antagonist): McPhail scoring scale for progestational endometrial response; details: for McPhail Index, Anti-McGinty Assay (Antagonist): plus progesterone
Method: (§1) Progestational activity and antiprogestational activity were determined in rabbits by means of the McGinty test (test compound alone, procedure of McGinty et al., Endocrinology, 24: 829-832 (1939)) or anti-McGinty test (test compound plus progesterone, procedure of Tamara et al., Jpn. J. Fertil Steril 24: 48-81 (1979)). Results were scored according to McPhail (McPhail, J Physiol., 83: 146 (1934)). These are standard procedures known to those skilled in the art. The results of these assays are shown in Tables 4 (agonist activity) and 5 (antagonist activity). […] Physiol, 83: 146 (1934)).

rabbits [3] = assay: McGinty assay (progestational activity, test compound alone); assay type: in vivo, rabbit; parameters: key: McPhail scoring scale for progestational endometrial response
Method: as §1

human T-47D breast cells [4] = assay: T47D cell proliferation, antagonist format (inhibition of R5020-mediated [^3 H]-thymidine incorporation); assay type: cell-based; details: for EC50: Homo sapiens, T47D, concentration which inhibits 0.15 nM R5020-mediated proliferation by 50%; for Cell Proliferation, Antagonist Format % inhibition: maximum % inhibition, 0.15 nM R5020
Method: (§2) Human T-47D breast cells grown in nutrient media were incubated with the standard progestin R5020 alone or with R5020 plus test compound and then assessed by standard procedures for proliferation using incorporation of [^3 H]-thymidine as the measurement. […] The maximum % inhibition (a measure of the efficacy of the compounds) is also given. In the agonist format of this assay the compounds were tested at concentrations ranging from 0.01 to 10 nM and the maximum % stimulation at any dose is listed in Table 3.

human T-47D breast cells [5] = assay: T47D cell proliferation, agonist format; assay type: cell-based; details: maximum % stimulation at any dose, 0.01 to 10 nM
Method: as §2

Q: For `CC1=[N+]([O-])C2(CC1)CCC1C3CCC4=CC(=O)CCC4=C3C(c3ccc(N(C)C)cc3)CC12C` (stereo not drawn) [II 4-Me2 N H O H -- CH3, 3',4'-dihydro-11β-(4-(N,N-dimethylamino)phenyl)-5'-methyl-1'-oxo-spiro[estra-4,9-dien-17β,2'(2'H)-pyrrole]-3-one], which IC50 [1] is on record?
A: The IC50 was 10.2 nM.

Q: And the “McPhail Index, Anti-McGinty Assay (Antagonist)” value (shortened to “McPhail Index … (Antagonist)”) (rabbits [2]; dose 0.3 micrograms)?
A: Its value is 2.03 ± 0.14.

Q: What about the “McPhail Index … (Antagonist)” value (rabbits [2]; dose 3 micrograms) of the same compound?
A: Its value is 1.9 ± 0.85.

Q: What about the “McPhail Index … (Antagonist)” value (rabbits [2]; dose 30 micrograms) of the same compound?
A: Its value is 0 ± 0.

Q: What about the “antiprogestational activity in the anti-McGinty assay” value (rabbits [2]; in words) of the same compound?
A: The value was “potent antiprogestin in the anti-McGinty assay”.

Q: And the “McPhail Index, McGinty Assay (Agonist)” value (rabbits [3]; dose 0.3 micrograms)?
A: The value was 0 ± 0.

Q: What about the “McPhail Index, McGinty Assay (Agonist)” value (rabbits [3]; dose 3 micrograms) of the same compound?
A: Its value is 0 ± 0.

Q: And the “McPhail Index, McGinty Assay (Agonist)” value (rabbits [3]; dose 30 micrograms)?
A: The value was 0 ± 0.

Q: How did the IC50 [1] turn out when `CN(C)c1ccc([C@H]2C[C@@]3(C)[C@@H](CC[C@]3(CCCO)[N+](=O)[O-])[C@@H]3CCC4=CC(=O)CCC4=C32)cc1` [I 4-Me2 N H O H --(CH2)3 OH, 11β-[4-(N,N-Dimethylamino)phenyl]-17α-(3-hydroxypropyl)-17β-nitroestra-4,9-dien-3-one] was run?
A: The IC50 was 4.1 nM.

Q: What about the EC50 (human T-47D breast cells [4]) of the same compound?
A: Its EC50 is 12 nM.

Q: What about the “Cell Proliferation, Antagonist Format % inhibition” value (human T-47D breast cells [4]) of the same compound?
A: The value was 89%.

Q: And the “McPhail Index … (Antagonist)” value (rabbits [2]; dose 0.3 micrograms)?
A: The value was 1.83 ± 0.48.

Q: What about the “McPhail Index … (Antagonist)” value (rabbits [2]; dose 3 micrograms) of the same compound?
A: Its value is 1.87 ± 0.98.

Q: What about the “McPhail Index … (Antagonist)” value (rabbits [2]; dose 30 micrograms) of the same compound?
A: Its value is 0.43 ± 0.31.

Q: What about the “McPhail Index, McGinty Assay (Agonist)” value (rabbits [3]; dose 0.3 micrograms) of the same compound?
A: The value was 0 ± 0.

Q: What about the “McPhail Index, McGinty Assay (Agonist)” value (rabbits [3]; dose 3 micrograms) of the same compound?
A: Its value is 0 ± 0.

Q: And the “McPhail Index, McGinty Assay (Agonist)” value (rabbits [3]; dose 30 micrograms)?
A: Its value is 0.03 ± 0.057.

Q: What about the Emax (human T-47D breast cells [5]) of the same compound?
A: Its Emax is 33%.

Q: How did the IC50 [1] turn out when `CC(=O)c1ccc([C@H]2C[C@@]3(C)[C@@H](CC[C@]3(/C=C/CO)[N+](=O)[O-])[C@@H]3CCC4=CC(=O)CCC4=C32)cc1` [I 4-CH3 CO H O H CH=CHCH2 OH, 11β-(4-acetylphenyl)-17α-(E-3-hydroxy-1-propenyl)-17β-nitroestra-4,9-dien-3-one] was run?
A: The IC50 was 26.1 nM.

Q: What about the EC50 (human T-47D breast cells [4]) of the same compound?
A: The EC50 was 122 nM.

Q: And the “Cell Proliferation, Antagonist Format % inhibition” value (human T-47D breast cells [4])?
A: Its value is 86%.

Q: What about the “McPhail Index … (Antagonist)” value (rabbits [2]; dose 0.3 micrograms) of the same compound?
A: Its value is 1.53 ± 0.68.

Q: And the “McPhail Index … (Antagonist)” value (rabbits [2]; dose 3 micrograms)?
A: The value was 1.76 ± 0.45.

Q: And the “McPhail Index … (Antagonist)” value (rabbits [2]; dose 30 micrograms)?
A: The value was 2.3 ± 0.0.

Q: And the “McPhail Index, McGinty Assay (Agonist)” value (rabbits [3]; dose 0.3 micrograms)?
A: Its value is 0 ± 0.

Q: What about the “McPhail Index, McGinty Assay (Agonist)” value (rabbits [3]; dose 3 micrograms) of the same compound?
A: Its value is 0 ± 0.

Q: And the “McPhail Index, McGinty Assay (Agonist)” value (rabbits [3]; dose 30 micrograms)?
A: Its value is 0 ± 0.

Q: And the Emax (human T-47D breast cells [5])?
A: The Emax was 52%.

Q: Which results are given for `CC#C[C@]1([N+](=O)[O-])CC[C@H]2[C@@H]3CCC4=CC(=O)CCC4=C3[C@@H](c3ccc(C(C)=O)cc3)C[C@@]21C` [I 4-CH3 CO H O H --CC--CH3, 11β-(4-Acetylphenyl)-17β-nitro-17α-(1-propynyl)estra-4,9-dien-3-one]?
A: IC50 [1]: 0.8 nM; EC50 (human T-47D breast cells [4]): 3.3 nM; Cell Proliferation, Antagonist Format % inhibition (human T-47D breast cells [4]): 90%; McPhail Index, Anti-McGinty Assay (Antagonist) (rabbits [2]; dose 0.3 micrograms): 2.173 ± 0.42; McPhail Index, Anti-McGinty Assay (Antagonist) (rabbits [2]; dose 3 micrograms): 2.47 ± 0.15; McPhail Index, Anti-McGinty Assay (Antagonist) (rabbits [2]; dose 30 micrograms): 0.13 ± 0.12; agonist/antagonist profile (rabbits [2]; in words, McGinty and anti-McGinty tests): mixed (agonist/antagonist) profile; McPhail Index, McGinty Assay (Agonist) (rabbits [3]; dose 0.3 micrograms): 0.13 ± 0.12; McPhail Index, McGinty Assay (Agonist) (rabbits [3]; dose 3 micrograms): 1.33 ± 0.35; McPhail Index, McGinty Assay (Agonist) (rabbits [3]; dose 30 micrograms): 0.97 ± 0.75; Emax (human T-47D breast cells [5]): 35%

Q: With `CC(=O)c1ccc([C@H]2C[C@@]3(C)[C@@H](CC[C@]3(CCCO)[N+](=O)[O-])[C@@H]3CCC4=CC(=O)CCC4=C32)cc1` [I 4-CH3 CO H O H --(CH2)3 OH, 11β-(4-Acetylphenyl)-17α-(3-hydroxypropyl)-17β-nitroestra-4,9-dien-3-one] as the compound, how does the IC50 [1] read?
A: The IC50 was 16 nM.

Q: What about the EC50 (human T-47D breast cells [4]) of the same compound?
A: The EC50 was 175 nM.

Q: And the “Cell Proliferation, Antagonist Format % inhibition” value (human T-47D breast cells [4])?
A: Its value is 96%.

Q: What about the “McPhail Index … (Antagonist)” value (rabbits [2]; dose 0.3 micrograms) of the same compound?
A: The value was 2.93 ± 0.12.

Q: What about the “McPhail Index … (Antagonist)” value (rabbits [2]; dose 3 micrograms) of the same compound?
A: Its value is 2.43 ± 0.6.

Q: And the “McPhail Index … (Antagonist)” value (rabbits [2]; dose 30 micrograms)?
A: Its value is 1.60 ± 0.66.

Q: And the “McPhail Index, McGinty Assay (Agonist)” value (rabbits [3]; dose 0.3 micrograms)?
A: The value was 0 ± 0.

Q: And the “McPhail Index, McGinty Assay (Agonist)” value (rabbits [3]; dose 3 micrograms)?
A: The value was 0 ± 0.

Q: And the “McPhail Index, McGinty Assay (Agonist)” value (rabbits [3]; dose 30 micrograms)?
A: Its value is 0 ± 0.

Q: What about the Emax (human T-47D breast cells [5]) of the same compound?
A: Its Emax is 41%.
